The source of these data is a compilation of properties of binary mixtures (doi:10.1007/s10765-020-02720-w).

SMILES strings stand for the structures.

As a reminder, the viscosity is the resistance of a fluid to flow. The low end stands for a thin fluid, the high end for a thick fluid.

The data set is described as follows: xn = mol fraction of the nth substance listed. To be noted: 100 kPa.

As for `C[n+]1ccn(CCC(F)(F)C(F)(F)F)c1.F[P-](F)(F)(F)(F)F` + CCCC[n+]1ccn(C)c1.F[P-](F)(F)(F)(F)F, the viscosity by setting is: (293.2 K, x2 = 0.91) 430 mPa·s; (293.2 K, x2 = 0.972) 370 mPa·s; (308.19 K, x2 = 0.91) 171 mPa·s; (308.19 K, x2 = 0.972) 153 mPa·s; (338.16 K, x2 = 0.91) 46.2 mPa·s; (368.13 K, x2 = 0.91) 17.6 mPa·s. This compound also returned a viscosity (368.13 K, x2 = 0.972) of 16.38 mPa·s.
With `CCCC[n+]1ccn(C)c1.F[P-](F)(F)(F)(F)F` + C[n+]1ccn(CCC(F)(F)C(F)(F)F)c1.F[P-](F)(F)(F)(F)F, the viscosity by setting is: (293.2 K, x1 = 1) 343 mPa·s; (308.19 K, x1 = 1) 144 mPa·s; (338.16 K, x1 = 1) 39.5 mPa·s; (368.13 K, x1 = 1) 16.34 mPa·s.
